Where “and” joins values, the source holds several entries; their conditions need not be identical. Equal entries are not always repeated. Where two headings read alike, the source gives them in different places.
Tests used:
[1] = Cytotoxicity by MTS staining in PBMCs; format: cell-based; conditions: human, peripheral blood mononuclear cells (PBMC), read-out: TC50
Description: (§1) Cytotoxicity was assessed by MTS staining. At assay end-point, PBMC were stained with the addition of […] of the soluble tetrazolium-based dye MTS to determine cell viability and quantify compound toxicity. The plates were incubated 4 to 6 hrs at 37° C. Following incubation, the activity was assessed by reading absorbance values at 490/650 nm.

[2] = target: T1, recombinant HIVNL4-3 heterodimeric (p66/p51) Reverse Transcriptase (Human immunodeficiency virus type 1 group M subtype B, UniProt P12497); test: Biochemical reverse transcriptase assay; parameters: species or system HIV-1; conditions: 5'LTR template/primer
T1 construct: Purified recombinant HIVNL4-3 heterodimeric (p66/p51) Reverse Transcriptase (RT)
Description: Enantiomers of Example 34 were created and utilized to assess the activity of the compounds in a biochemical reverse transcriptase assay. Purified recombinant HIVNL4-3 heterodimeric (p66/p51) Reverse Transcriptase (RT) was used in experiments. RT activity was determined by the incorporation of radiolabeled deoxyribonucleotides into the newly synthesized DNA strand. The standard RT reaction mixture contained a synthetic homopolymeric template/primer [poly(rA)/oligo(dT)] or in vitro transcribed viral RNA derived from the HIV-1NL4-3 5′-LTR region (nucleotide residues 454 to 652) and a primer complementary to the primer binding site (PBS, nucleotide residues 636 to 652), radiolabeled deoxyribonucleotide, dNTPs and RT. The reaction was carried out in a volume of 40 μl containing 50 mM Tris HCl, pH 7.8, 50 mM KCl, 5 mM MgCl2, 1 mM DTT, 50 μM each of dATP, dCTP, dGTP, 50 nM dTTP, 1 μCi of [^3H] dTTP (70-90 Ci/mM) and 5 nM template/primer. The reaction was initiated by the addition of 10 nM RT. For compound screening, serially diluted test articles were added to the reaction followed by the addition of RT. The reaction mixture was incubated at 37° C. for 1 h, then quenched by the addition of ice-cold trichloroacetic acid (TCA) to the final concentration of 10%. The plate was incubated at 4° C. for 1 h to precipitate the synthesized DNA, then rinsed 3-times with 10% TCA and 1 time with 70% ethanol. After addition of 25 μl scintillation fluid to completely dried wells, radioactivity is counted by MicroBeta scintillation counter. The reduction of radioactivity represents the potency of compound inhibition.

HIV-1Ba-L [3] = test: HIV-1Ba-L replication in PBMCs (supernatant RT end-point)
In short: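 Pooled PHA-stimulated human PBMCs (5×10^4 cells/well) were infected with HIV-1Ba-L at MOI 0.1 with nine ½-log compound dilutions and cultured seven days at 37° C. Supernatant RT activity was measured by ^3H-TTP incorporation on poly rA:oligo dT (60 minutes, 37° C) and counted by scintillation.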

[4] = Cytotoxicity by MTS staining in uninfected MAGI-CCR5 cells; format: cell-based; conditions: human, read-out: TC50
In short: (§2)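 Uninfected MAGI-CCR5 cells (HeLa-CD4-LTR-β-gal derived, expressing CD4/CCR5) plated at 1.0×10^4 cells/well the day before, then exposed to compounds at six concentrations in triplicate alongside parallel infected assays. Viability read by MTS staining.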

HIV-1 K103N, Y181C (A17) = HIV-1 K103N, Y181C (A17) replication in PBMCs; format: cell-based; conditions: for IC50: Human immunodeficiency virus 1, PBMC; for TI (TC50/IC50): Virus A17 (K103N, Y181C) in PBMCs; for effect of RT changes K103N and Y181C on anti-viral activity: virus with K103 to Asparagine and Y181 to cysteine
From the text: In another embodiment of the present disclosure compounds are provided which inhibit the replication of HIV strains resistant to NNRTIs. Compounds in this disclosure inhibit, A17, an HIV-1 virus with mutations in the RT non-nucleoside binding pocket, K103N and Y181C, in a dose-dependent susceptibility testing manner.
The asparagine variation at residue 103 and the cysteine variation at residue 181 are known to inhibit the activity of the NNRTI's.
Evaluation Dihydropyrimidines vs. HIV-1Ba-L and HIV-1 K103N, Y181C in PBMCs

HIV-1Ba-L [5] = test: Inhibition of virus replication in MAGI-CCR5 cells (β-galactosidase reporter); format: cell-based; conditions: HIV-1Ba-L in MAGI-CCR5 cells; for IC50: 48 hours, β-galactosidase reporter expression, read-out: IC50
In short: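 HeLa-derived MAGI-CCR5 cells (high CD4/CCR5, HIV-1 LTR-driven β-galactosidase) plated at 1.0×10^4 cells/well the day before infection with HIV-1Ba-L. Compounds tested at six concentrations in triplicate, with parallel uninfected plates for cytotoxicity.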

MAGI-CCR5 cells = test: Cytotoxicity by MTS staining in uninfected MAGI-CCR5 cells; format: cell-based; conditions: 48 hours, read-out: TC50 (the source's name)
In short: as §2

[6] = system: peripheral blood mononuclear cells (PBMC); test: Cytotoxicity by MTS staining in PBMCs; format: cell-based; conditions: MTS staining, read-out: TC50 (the source's name)
Description: as §1

[7] = 5'LTR/dPR IC50, HIV RT biochemical assay
[8] = Human immunodeficiency virus 1, PBMC, 168 h
[9] = Human immunodeficiency virus 1, BAL, PBMC
[10] = Virus Ba-L in PBMCs (Ba-L vs A17 comparison)

| Structure (SMILES) | CC50 at 7 days ([1]; MTS staining) | IC50 [2, 7] | TI (TC50/IC50) (HIV-1Ba-L [3]; HIV-1Ba-L in PBMCs) | IC50 (HIV-1Ba-L [3]; [8]) | IC50 ([2]; HIV RT biochemical assay, read-out: 5'LTR/dPR IC50) | CC50 at 48 h [4] | CC50 at 7 days ([1]; A17 line of the table) | CC50 at 7 days ([1]; Ba-L line of the table) | IC50 (HIV-1 K103N, Y181C (A17)) | TI (TC50/IC50) (HIV-1 K103N, Y181C (A17)) | effect of RT changes K103N and Y181C on anti-viral activity (HIV-1 K103N, Y181C (A17)) | IC50 (HIV-1Ba-L [3]; [9]) | TI (TC50/IC50) (HIV-1Ba-L [3]; [10]) | TI (TC50/IC50) (HIV-1Ba-L [5]) | IC50 (HIV-1Ba-L [5]; Human immunodeficiency virus 1) | CC50 (MAGI-CCR5 cells) | IC50 (HIV-1Ba-L [5]) | CC50 [6] | IC50 (HIV-1Ba-L [3]; HIV-1Ba-L in PBMCs, seven days, RT end-point) |
| --- | --- | --- | --- | --- | --- | --- | --- | --- | --- | --- | --- | --- | --- | --- | --- | --- | --- | --- | --- |
| CC1=C(c2nc(-c3ccc(C#N)cc3)cs2)C(c2cccc(O)c2)NC(=O)N1 (single isomer, unassigned) [Example 34 (enantiomer)] | ≥ 100 µM | > 100 µM | D (D < 10.0) | 5 to 100 µM |  |  |  |  |  |  |  |  |  |  |  |  |  |  |  |
| Cc1cn([C@H]2C[C@H](N=[N+]=[N-])[C@@H](COP(=O)(O)OP(=O)(O)OP(=O)(O)O)O2)c(=O)[nH]c1=O [AZT-TP] |  |  |  |  | 0.009 µM and 0.01 µM |  |  |  |  |  |  |  |  |  |  |  |  |  |  |
| CC1=C(c2nc(-c3ccc(C#N)cc3)cs2)C(c2cc3ccccc3n2C)NC(=O)N1 (centres unmarked) [Example 11] | ≥ 100 µM |  | A (A = TI (TC50/IC50) ≧100.0) | < 1 µM |  | ≥ 100 µM | ≥ 100 µM | ≥ 100 µM | > 100 µM | D (D < 10.0) | inhibit the anti-viral activity | < 1 µM | A (A = TI (TC50/IC50) ≧ 100.0) | A (A = TI (TC50/IC50) ≧ 100.0) | < 1 µM |  |  |  |  |
| CC1=C(c2nc(-c3ccc(C#N)cc3)cs2)C(c2ccc(F)nc2)NC(=O)N1 (centres unmarked) [Example 19] | ≥ 100 µM |  | A (A = TI (TC50/IC50) ≧100.0) | < 1 µM |  | ≥ 100 µM | ≥ 100 µM | ≥ 100 µM | > 100 µM | D (D < 10.0) | inhibit the anti-viral activity | < 1 µM | A (A = TI (TC50/IC50) ≧ 100.0) | B (B < 100.0-50.0) | 1 to 5 µM |  |  |  |  |
| CC1=C(c2nc(-c3ccc(C#N)cc3)cs2)C(c2cnc3ccccc3n2)NC(=O)N1 (centres unmarked) [Example 21] | ≥ 100 µM |  | D (D < 10.0) | > 100 µM |  | ≥ 100 µM | ≥ 100 µM | ≥ 100 µM | > 100 µM | D (D < 10.0) |  | > 100 µM | D (D < 10.0) | D (D < 10.0) | > 100 µM |  |  |  |  |
| CC1=C(c2nc(-c3ccc(C#N)cc3)cs2)C(c2cccc(O)c2)NC(=O)N1 (centres unmarked) [Example 34] | 50 to 100 µM | < 1 µM | A (A = TI (TC50/IC50) ≧100.0) | < 1 µM |  | ≥ 100 µM |  |  |  |  |  |  |  | A (A = TI (TC50/IC50) ≧ 100.0) | < 1 µM |  |  |  |  |
| COc1ccc(-c2csc(C3=C(C)NC(=O)NC3c3ccc(F)c([N+](=O)[O-])c3)n2)cc1 (centres unmarked) [Example 42] | ≥ 100 µM |  | D (D < 10.0) | 5 to 100 µM |  | ≥ 100 µM | ≥ 100 µM | ≥ 100 µM | 5 to 100 µM | D (D < 10.0) |  | 5 to 100 µM | D (D < 10.0) | D (D < 10.0) | > 100 µM |  |  |  |  |
| CC1=C(c2nc(-c3ccc(C#N)cc3C)cs2)C(c2cccnc2F)NC(=O)N1 (centres unmarked) [Example 83] |  |  |  |  |  |  |  |  |  |  |  |  |  | B (B < 100.0-50.0) |  | < 50 µM | < 1 µM |  |  |
| CC1=C(c2nc(-c3ccc(C#N)cc3C)cs2)C(c2cccnc2F)NC(=O)N1 (centres unmarked) [Example 86] | ≥ 100 µM |  | A (A = TI (TC50/IC50) ≧100.0) | < 1 µM |  |  | ≥ 100 µM | ≥ 100 µM | 5 to 100 µM | D (D < 10.0) |  | < 1 µM | A (A = TI (TC50/IC50) ≧ 100.0) | A (A = TI (TC50/IC50) ≧ 100.0) |  | ≥ 100 µM | < 1 µM |  |  |
| CC1=C(c2nc(-c3ccc(C#N)cc3C)cs2)C(c2cc3ccccc3n2C)NC(=O)N1 (centres unmarked) [Example 87] | ≥ 100 µM |  | A (A = TI (TC50/IC50) ≧100.0) | < 1 µM |  | ≥ 100 µM | ≥ 100 µM | ≥ 100 µM | 5 to 100 µM | C (C < 50.0-10.0) |  | < 1 µM | A (A = TI (TC50/IC50) ≧ 100.0) | A (A = TI (TC50/IC50) ≧ 100.0) | < 1 µM |  |  |  |  |
| CC1=C(c2nc(-c3ccc(F)cc3)cs2)C(Cc2ccccc2)NC(=O)N1 (centres unmarked) [Example 89] | ≥ 100 µM |  | D (D < 10.0) | 5 to 100 µM |  | ≥ 100 µM | ≥ 100 µM | ≥ 100 µM | > 100 µM | D (D < 10.0) |  | > 100 µM | D (D < 10.0) | D (D < 10.0) | > 100 µM |  |  |  |  |
| CC1=C(c2nc(-c3ccc(C#N)cc3)cs2)C(c2ccc(Br)nc2)NC(=O)N1 (centres unmarked) [Example 93] | ≥ 100 µM |  | A (A = TI (TC50/IC50) ≧100.0) | < 1 µM |  | ≥ 100 µM | ≥ 100 µM | ≥ 100 µM | > 100 µM | D (D < 10.0) |  | < 1 µM | A (A = TI (TC50/IC50) ≧ 100.0) | A (A = TI (TC50/IC50) ≧ 100.0) | < 1 µM |  |  |  |  |
| CC1=C(c2nc(-c3ccc(C#N)cc3)cs2)C(c2ccc(C(F)(F)F)nc2)NC(=O)N1 (centres unmarked) [Example 96] | ≥ 100 µM |  | A (A = TI (TC50/IC50) ≧100.0) | < 1 µM |  | ≥ 100 µM | ≥ 100 µM | ≥ 100 µM | 5 to 100 µM | D (D < 10.0) |  | < 1 µM | A (A = TI (TC50/IC50) ≧ 100.0) | A (A = TI (TC50/IC50) ≧ 100.0) | < 1 µM |  |  |  |  |
| Cc1ccnc2c1NC(=O)c1cccnc1N2C1CC1 [Nevirapine] |  | 0.29 µM and 0.19 µM |  |  |  |  |  |  |  |  |  |  |  |  |  |  |  |  |  |
| Cc1ccc(-c2ccc3c(c2)C=C(C(=O)Nc2ccc(C[N+](C)(C)C4CCOCC4)cc2)CCC3)cc1.[Cl-] [TAK 779, reference compound] |  |  | >29.9 |  |  |  |  |  |  |  |  |  |  | 2902.7 |  | > 10 µM | 0.004 µM | > 10 µM | 0.35 µM |
| Cc1cc(C#N)cc(C)c1Oc1nc(Nc2ccc(C#N)cc2)nc(N)c1Br [TMC-125, Etravirine, reference compound] | > 1 µM | 0.19 µM | >325.0 |  |  | > 100 µM | > 1 µM | > 1 µM | 0.01 µM | >101.0 |  |  | >402.0 | >37,500.0 | 0.003 µM |  |  |  |  |

From patent US9120787B2, “HIV replication inhibitors” (priority 2011, dated 2015)
